# Assay results: patent US20230085307A1, “PYRIDAZINONE COMPOUND AND HERBICIDE” (NISSAN CHEMICAL CORPORATION, priority 2019, published 2023)
# What was measured:
# Chinese sprangletop = assay: Test Example 3: herbicidal effect by foliage application, Wagner pot (Table 18, symbol D); type: in vivo, chinese sprangletop (Leptochloa chinensis); settings: amount of applied herbicide 320 g/ha
# Method in brief: (§1)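 Plants were sown in alluvial soil held under 0.1–0.5 cm standing water and grown 14 days in a greenhouse at 25–30 °C. An emulsifiable formulation, water-diluted to the set dose, was then sprayed onto the foliage, and effects were scored three weeks later using previously defined criteria.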
# late watergrass [1] = assay: Test Example 2: herbicidal activity, application during weed generation under submerged conditions (Table 17, symbol A); type: in vivo, late watergrass (Echinochloa oryzicola); settings: AAH 320 g/ha; application during weed generation, submerged conditions
# Method in brief: (§2)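 Effect on each weed is rated three weeks post-treatment, using the same scoring criteria as the preceding test. Plants grow from mixed-sown seed in flooded alluvial soil (4 cm water) at 25° C. to 30° C., and are treated at one to two leaves with diluted emulsion dropped onto the water.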
# Japanese bulrush [2] = assay: Test Example 2: herbicidal activity, application during weed generation under submerged conditions (Table 17, symbol B); type: in vivo, Japanese bulrush (Schoenoplectus juncoides); settings: AAH 320 g/ha; application during weed generation, submerged conditions
# Method in brief: as §2
# barnyard grass [3] = assay: Test Example 4: herbicidal effect by soil treatment (Table 19, symbol H); type: in vivo, barnyard grass (Echinochloa crus-galli); settings: amount of applied herbicide 320 g/ha
# Method in brief: (§3)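 Scoring uses the grading scale of an earlier test, three weeks post-application. Treatment consists of spraying a diluted emulsion formulation across the surface of sterilized diluvial soil in which seeds are buried near 1.5 cm deep; boxes are kept in a greenhouse between 25° C. and 30° C.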
# redroot pigweed [4] = assay: Test Example 4: herbicidal effect by soil treatment (Table 19, symbol N); type: in vivo, redroot pigweed (Amaranthus retroflexus); settings: amount of applied herbicide 320 g/ha
# Method in brief: as §3
# green foxtail [5] = assay: Test Example 5: herbicidal effect by foliage application, plastic box (Table 20, symbol G); type: in vivo, green foxtail (Setaria viridis); settings: foliage application, 320 g/ha, three weeks after application
# Method in brief: (§4)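 Post-emergence foliar test in sterilized diluvial soil. Compound applied as water-diluted emulsion at a predetermined rate to 14-day-old plants; evaluation at three weeks.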
# lambsquarters [6] = assay: Test Example 5: herbicidal effect by foliage application, plastic box (Table 20, symbol O); type: in vivo, lambsquarters (Chenopodium album); settings: foliage application, 320 g/ha, three weeks after application
# Method in brief: as §4
# Japanese bulrush [7] = assay: Test Example 1: herbicidal activity, application before weed generation under submerged conditions (Table 16, symbol B); type: in vivo, Japanese bulrush (Schoenoplectus juncoides); settings: amount of applied herbicide 320 g/ha
# Method in brief: (§5)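 Alluvial soil was flooded to 4 cm depth, weed seeds were sown mixed and 2.5-leaf rice seedlings were transplanted. On sowing day, the compound's emulsion, diluted in water to a set dose, was applied to the water surface. Plants grew at 25–30 °C and were scored 0–5 after three weeks.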
# barnyard grass [8] = assay: Test Example 3: herbicidal effect by foliage application, Wagner pot (Table 18, symbol H); type: in vivo, barnyard grass (Echinochloa crus-galli); settings: amount of applied herbicide 320 g/ha
# Method in brief: as §1
# redroot pigweed [9] = assay: Test Example 5: herbicidal effect by foliage application, plastic box (Table 20, symbol N); type: in vivo, redroot pigweed (Amaranthus retroflexus); settings: foliage application, 320 g/ha, three weeks after application
# Method in brief: as §4
# green foxtail [10] = assay: Test Example 4: herbicidal effect by soil treatment (Table 19, symbol G); type: in vivo, green foxtail (Setaria viridis); settings: amount of applied herbicide 320 g/ha
# Method in brief: as §3
# lambsquarters [11] = assay: Test Example 4: herbicidal effect by soil treatment (Table 19, symbol O); type: in vivo, lambsquarters (Chenopodium album); settings: amount of applied herbicide 320 g/ha
# Method in brief: as §3
# rice flat sedge = assay: Test Example 3: herbicidal effect by foliage application, Wagner pot (Table 18, symbol E); type: in vivo, rice flat sedge (Cyperus iria); settings: amount of applied herbicide 320 g/ha
# Method in brief: as §1
# velvetleaf [12] = assay: Test Example 5: herbicidal effect by foliage application, plastic box (Table 20, symbol M); type: in vivo, velvetleaf (Abutilon theophrasti); settings: foliage application, 320 g/ha, three weeks after application
# Method in brief: as §4
# oval-leafed pondweed [13] = assay: Test Example 2: herbicidal activity, application during weed generation under submerged conditions (Table 17, symbol C); type: in vivo, oval-leafed pondweed (Monochoria vaginalis); settings: AAH 320 g/ha; application during weed generation, submerged conditions
# Method in brief: as §2
# late watergrass [14] = assay: Test Example 1: herbicidal activity, application before weed generation under submerged conditions (Table 16, symbol A); type: in vivo, late watergrass (Echinochloa oryzicola); settings: amount of applied herbicide 320 g/ha
# Method in brief: as §5
# southern crabgrass [15] = assay: Test Example 4: herbicidal effect by soil treatment (Table 19, symbol F); type: in vivo, southern crabgrass (Digitaria ciliaris); settings: amount of applied herbicide 320 g/ha
# Method in brief: as §3
# barnyard grass [16] = assay: Test Example 5: herbicidal effect by foliage application, plastic box (Table 20, symbol H); type: in vivo, barnyard grass (Echinochloa crus-galli); settings: foliage application, 320 g/ha, three weeks after application
# Method in brief: as §4
# oval-leafed pondweed [17] = assay: Test Example 1: herbicidal activity, application before weed generation under submerged conditions (Table 16, symbol C); type: in vivo, oval-leafed pondweed (Monochoria vaginalis); settings: amount of applied herbicide 320 g/ha
# Method in brief: as §5
# southern crabgrass [18] = assay: Test Example 5: herbicidal effect by foliage application, plastic box (Table 20, symbol F); type: in vivo, southern crabgrass (Digitaria ciliaris); settings: foliage application, 320 g/ha, three weeks after application
# Method in brief: as §4
# velvetleaf [19] = assay: Test Example 4: herbicidal effect by soil treatment (Table 19, symbol M); type: in vivo, velvetleaf (Abutilon theophrasti); settings: amount of applied herbicide 320 g/ha
# Method in brief: as §3
structure (smiles),measurement,setting,value
COCCOc1ccc(-c2sc3ccc(F)cc3c2-c2c(O)c(Cl)nn(C)c2=O)cc1 [2-440],herbicidal effect on D: Chinese sprangletop,Chinese sprangletop,0 (Herbicidal rate of 5% or less (almost no effect))
same,"herbicidal effect rating, A: late watergrass",late watergrass [1],3 (Herbicidal rate of 40% or more and less than 70%)
same,"herbicidal effect rating, B: Japanese bulrush",Japanese bulrush [2],3 (Herbicidal rate of 40% or more and less than 70%)
same,"herbicidal effect, H: barnyard grass",barnyard grass [3],3 (Herbicidal rate of 40% or more and less than 70%)
same,"herbicidal effect, N: redroot pigweed",redroot pigweed [4],5 (Herbicidal rate of 90% or more (almost completely withered))
same,"G: green foxtail, herbicidal effect grade",green foxtail [5],5 (Herbicidal rate of 90% or more (almost completely withered))
same,"O: lambsquarters, herbicidal effect grade",lambsquarters [6],5 (Herbicidal rate of 90% or more (almost completely withered))
same,"Herbicidal effect, B: Japanese bulrush",Japanese bulrush [7],4 (Herbicidal rate of 70% or more and less than 90%)
same,herbicidal effect on H: barnyard grass,barnyard grass [8],5 (Herbicidal rate of 90% or more (almost completely withered))
same,"N: redroot pigweed, herbicidal effect grade",redroot pigweed [9],5 (Herbicidal rate of 90% or more (almost completely withered))
same,"herbicidal effect, G: green foxtail",green foxtail [10],5 (Herbicidal rate of 90% or more (almost completely withered))
same,"herbicidal effect, O: lambsquarters",lambsquarters [11],5 (Herbicidal rate of 90% or more (almost completely withered))
same,herbicidal effect on E: rice flat sedge,rice flat sedge,0 (Herbicidal rate of 5% or less (almost no effect))
same,"M: velvetleaf, herbicidal effect grade",velvetleaf [12],5 (Herbicidal rate of 90% or more (almost completely withered))
same,"herbicidal effect rating, C: oval-leafed pondweed",oval-leafed pondweed [13],3 (Herbicidal rate of 40% or more and less than 70%)
same,"Herbicidal effect, A: late watergrass",late watergrass [14],3 (Herbicidal rate of 40% or more and less than 70%)
same,"herbicidal effect, F: southern crabgrass",southern crabgrass [15],3 (Herbicidal rate of 40% or more and less than 70%)
same,"H: barnyard grass, herbicidal effect grade",barnyard grass [16],5 (Herbicidal rate of 90% or more (almost completely withered))
same,"Herbicidal effect, C: oval-leafed pondweed",oval-leafed pondweed [17],3 (Herbicidal rate of 40% or more and less than 70%)
same,"F: southern crabgrass, herbicidal effect grade",southern crabgrass [18],5 (Herbicidal rate of 90% or more (almost completely withered))
same,"herbicidal effect, M: velvetleaf",velvetleaf [19],4 (Herbicidal rate of 70% or more and less than 90%)
